Test results reported in patent US4360458A, “Antitumor antibacterial agents” (priority 1980, dated 1982).
Values after ≈ are worked out from the molar mass of the structure shown.

Experiments:
[1] = system: A. faecalis ATCC 8750; assay: MIC, serial agar dilution method; type: cell-based; details: nutrient agar pH 7, overnight 37° C.
Experimental: (§1) Antimicrobial activity of BBM-928 components was determined against a variety of bacteria and fungi by serial agar dilution method in nutrient agar at pH 7 using Steer's multi-inoculating apparatus. The inoculum size was standardized to apply a 0.0025-ml aliquot of test organisms containing approximately 10^4 cell/ml for all bacteria and fungi except acid-fast bacteria for which a 10^6 cell/ml suspension was used.

[2] = system: B. megaterium D2; assay: MIC, serial agar dilution method; type: cell-based; details: nutrient agar pH 7, overnight 37° C.
Experimental: as §1

[3] = system: B. subtilis PCI 219; assay: MIC, serial agar dilution method; type: cell-based; details: nutrient agar pH 7, overnight 37° C.
Experimental: as §1

[4] = system: C. arbicans IAM 4888; assay: MIC, serial agar dilution method; type: cell-based; details: nutrient agar pH 7, overnight 37° C.
Experimental: as §1

[5] = system: C. neoformans; assay: MIC, serial agar dilution method; type: cell-based; details: nutrient agar pH 7, overnight 37° C.
Experimental: as §1

[6] = system: C. xerosis 53K-1; assay: MIC, serial agar dilution method; type: cell-based; details: nutrient agar pH 7, overnight 37° C.
Experimental: as §1

[7] = system: E. coli NIHJ; assay: MIC, serial agar dilution method; type: cell-based; details: nutrient agar pH 7, overnight 37° C.
Experimental: as §1

[8] = system: K. pneumoniae D-11; assay: MIC, serial agar dilution method; type: cell-based; details: nutrient agar pH 7, overnight 37° C.
Experimental: as §1

[9] = system: M. flavus D12; assay: MIC, serial agar dilution method; type: cell-based; details: nutrient agar pH 7, overnight 37° C.
Experimental: as §1

[10] = system: M. phlei D88; assay: MIC, serial agar dilution method; type: cell-based; details: nutrient agar pH 7, overnight 37° C., 10^6 cell/ml inoculum
Experimental: as §1

[11] = system: M. smegmatis 607 D87; assay: MIC, serial agar dilution method; type: cell-based; details: nutrient agar pH 7, overnight 37° C., 10^6 cell/ml inoculum
Experimental: as §1

[12] = system: P. aeruginosa A9930; assay: MIC, serial agar dilution method; type: cell-based; details: nutrient agar pH 7, overnight 37° C.
Experimental: as §1

[13] = system: P. mirabilis A9554; assay: MIC, serial agar dilution method; type: cell-based; details: nutrient agar pH 7, overnight 37° C.
Experimental: as §1

[14] = system: P. morganii A9553; assay: MIC, serial agar dilution method; type: cell-based; details: nutrient agar pH 7, overnight 37° C.
Experimental: as §1

[15] = system: P. vulgaris A9436; assay: MIC, serial agar dilution method; type: cell-based; details: nutrient agar pH 7, overnight 37° C.
Experimental: as §1

[16] = system: S. aureus 209P; assay: MIC, serial agar dilution method; type: cell-based; details: nutrient agar pH 7, overnight 37° C.
Experimental: as §1

[17] = system: S. lutea PCI 1001; assay: MIC, serial agar dilution method; type: cell-based; details: nutrient agar pH 7, overnight 37° C.
Experimental: as §1

[18] = system: S. marcescens A20019; assay: MIC, serial agar dilution method; type: cell-based; details: nutrient agar pH 7, overnight 37° C.
Experimental: as §1

[19] = system: S. pyogenes S-23; assay: MIC, serial agar dilution method; type: cell-based; details: nutrient agar pH 7, overnight 37° C.
Experimental: as §1

[20] = system: B. anthracis A9504; type: cell-based; details: nutrient agar pH 7, overnight 37° C.
[21] = system: lysogenic bacterium; assay: Prophage induction in lysogenic bacterium (ILB); type: cell-based; details: up to a concentration of 100 mcg./ml
Experimental: The activity of prophage induction in lysogenic bacterium (ILB) was determined for BBM-928 components.

[22] = system: B16 melamoma; assay: Antitumor activity, intraperitoneally implanted tumor; type: in vivo, mouse
Experimental: (§2) Comparative testing of BBM-928 components A, B, C and D with mitomycin C for antitumor activity was carried out with the intraperitoneally implanted tumors: P388 leukemia, L1210 leukemia, B16 melamoma, Lewis Lung (LL) carcinoma, and sarcoma 180 ascites (S180). […] By varying dosage, the minimum effective dose (MED) was determined which provided a median survival time value for the treated animals at least 1.25 times greater than a control group. This level of activity is considered to be a measure of significant antitumor activity. […] Expt. Path.

[23] = system: L1210 leukemia; assay: as above; type: in vivo, mouse
Experimental: as §2

[24] = system: Lewis Lung (LL) carcinoma; assay: as above; type: in vivo, mouse
Experimental: as §2

[25] = system: P388 leukemia; assay: as above; type: in vivo, mouse
Experimental: as §2

[26] = system: sarcoma 180 ascites (S180); assay: as above; type: in vivo, mouse
Experimental: as §2

[27] = Intraperitoneal LD50, method of Van der Waerden
[28] = daily treatments from day 1 to day 9
[29] = single treatment on day 1, median survival time at least 1.25 times control

## COc1ccc2nc(C(=O)N[C@@H]3COC(=O)[C@H](C(C)(C)O)N(C)C(=O)CN(C)C(=O)CNC(=O)[C@@H]4[C@@H](OC(C)=O)CC=NN4C(=O)[C@H](NC(=O)c4nc5ccc(OC)cc5cc4O)COC(=O)[C@H](C(C)(C)O)N(C)C(=O)CN(C)C(=O)CNC(=O)[C@@H]4[C@@H](OC(C)=O)CC=NN4C3=O)c(O)cc2c1 [BBM-928A]
[1]
  MIC: > 100 µg/mL
[2]
  MIC: 25 µg/mL (≈ 17.5 µM)
[3]
  MIC: 25 µg/mL (≈ 17.5 µM)
[4]
  MIC: > 100 µg/mL
[5]
  MIC: 100 µg/mL (≈ 70.1 µM)
[6]
  MIC: 25 µg/mL (≈ 17.5 µM)
[7]
  MIC: > 100 µg/mL
[8]
  MIC: > 100 µg/mL
[9]
  MIC: 12.5 µg/mL (≈ 8.76 µM)
[10]
  MIC: 12.5 µg/mL (≈ 8.76 µM)
[11]
  MIC: 25 µg/mL (≈ 17.5 µM)
[12]
  MIC: > 100 µg/mL
[13]
  MIC: > 100 µg/mL
[14]
  MIC: > 100 µg/mL
[15]
  MIC: > 100 µg/mL
[16]
  MIC: 12.5 µg/mL (≈ 8.76 µM)
[17]
  MIC: 6.3 µg/mL (≈ 4.41 µM)
[18]
  MIC: > 100 µg/mL
[19]
  MIC: 6.3 µg/mL (≈ 4.41 µM)
[20]
  MIC: 6.3 µg/mL (≈ 4.41 µM)
[21]
  ILB activity (prophage induction in lysogenic bacterium): No significant ILB activity
[22]; [28]
  Activity Ratio (BBM-928A vs. Mitomycin C): 100
  Minimum Effective Dose (MED): 0.003 mg/kg/day
[22]; single treatment on day 1
  Activity Ratio (BBM-928A vs. Mitomycin C): 300
[22]; [29]
  Minimum Effective Dose (MED): 0.003 mg/kg/day
[23]; [28]
  Activity Ratio (BBM-928A vs. Mitomycin C): 100
  Minimum Effective Dose (MED): 0.003 mg/kg/day
[23]; [29]
  Minimum Effective Dose (MED): > 0.1 mg/kg/day
[24]; [28]
  Activity Ratio (BBM-928A vs. Mitomycin C): 100
  Minimum Effective Dose (MED): 0.003 mg/kg/day
[24]; single treatment on day 1
  Activity Ratio (BBM-928A vs. Mitomycin C): 10
[24]; [29]
  Minimum Effective Dose (MED): 0.03 mg/kg/day
[25]; [28]
  Activity Ratio (BBM-928A vs. Mitomycin C): 100
  Minimum Effective Dose (MED): 0.001 mg/kg/day
[25]; single treatment on day 1
  Activity Ratio (BBM-928A vs. Mitomycin C): 30
[25]; [29]
  Minimum Effective Dose (MED): 0.003 mg/kg/day
[26]; [28]
  Activity Ratio (BBM-928A vs. Mitomycin C): 100
  Minimum Effective Dose (MED): 0.0001 mg/kg/day
[26]; single treatment on day 1
  Activity Ratio (BBM-928A vs. Mitomycin C): 100
[26]; [29]
  Minimum Effective Dose (MED): 0.003 mg/kg/day
[27]; [28]
  LD50, i.p.: 0.013 mg/kg/day
[27]; single treatment on day 1
  LD50, i.p.: 0.13 mg/kg/day

## COc1ccc2nc(C(=O)N[C@@H]3COC(=O)[C@H](C(C)(C)O)N(C)C(=O)CN(C)C(=O)CNC(=O)[C@@H]4[C@@H](O)CC=NN4C(=O)[C@H](NC(=O)c4nc5ccc(OC)cc5cc4O)COC(=O)[C@H](C(C)(C)O)N(C)C(=O)CN(C)C(=O)CNC(=O)[C@@H]4[C@@H](OC(C)=O)CC=NN4C3=O)c(O)cc2c1 [BBM-928B]
[1]
  MIC: > 100 µg/mL
[2]
  MIC: 25 µg/mL (≈ 18 µM)
[3]
  MIC: 25 µg/mL (≈ 18 µM)
[4]
  MIC: > 100 µg/mL
[5]
  MIC: > 100 µg/mL
[6]
  MIC: 50 µg/mL (≈ 36.1 µM)
[7]
  MIC: > 100 µg/mL
[8]
  MIC: > 100 µg/mL
[9]
  MIC: 25 µg/mL (≈ 18 µM)
[10]
  MIC: 12.5 µg/mL (≈ 9.02 µM)
[11]
  MIC: 25 µg/mL (≈ 18 µM)
[12]
  MIC: > 100 µg/mL
[13]
  MIC: > 100 µg/mL
[14]
  MIC: > 100 µg/mL
[15]
  MIC: > 100 µg/mL
[16]
  MIC: 25 µg/mL (≈ 18 µM)
[17]
  MIC: 12.5 µg/mL (≈ 9.02 µM)
[18]
  MIC: > 100 µg/mL
[19]
  MIC: 12.5 µg/mL (≈ 9.02 µM)
[20]
  MIC: 12.5 µg/mL (≈ 9.02 µM)
[21]
  ILB activity (prophage induction in lysogenic bacterium): No significant ILB activity
[25]; [29]
  Minimum Effective Dose (MED): 0.1 mg/kg/day
[27]; single treatment on day 1
  LD50, i.p.: 0.18 mg/kg/day

## COc1ccc2nc(C(=O)N[C@@H]3COC(=O)[C@H](C(C)(C)O)N(C)C(=O)CN(C)C(=O)CNC(=O)[C@@H]4[C@@H](O)CC=NN4C(=O)[C@H](NC(=O)c4nc5ccc(OC)cc5cc4O)COC(=O)[C@H](C(C)(C)O)N(C)C(=O)CN(C)C(=O)CNC(=O)[C@@H]4[C@@H](O)CC=NN4C3=O)c(O)cc2c1 [BBM-928C]
[1]
  MIC: > 100 µg/mL
[2]
  MIC: 50 µg/mL (≈ 37.2 µM)
[3]
  MIC: 100 µg/mL (≈ 74.4 µM)
[4]
  MIC: > 100 µg/mL
[5]
  MIC: 100 µg/mL (≈ 74.4 µM)
[6]
  MIC: > 100 µg/mL
[7]
  MIC: > 100 µg/mL
[8]
  MIC: > 100 µg/mL
[9]
  MIC: 50 µg/mL (≈ 37.2 µM)
[10]
  MIC: 12.5 µg/mL (≈ 9.31 µM)
[11]
  MIC: 25 µg/mL (≈ 18.6 µM)
[12]
  MIC: > 100 µg/mL
[13]
  MIC: > 100 µg/mL
[14]
  MIC: > 100 µg/mL
[15]
  MIC: > 100 µg/mL
[16]
  MIC: 50 µg/mL (≈ 37.2 µM)
[17]
  MIC: 50 µg/mL (≈ 37.2 µM)
[18]
  MIC: > 100 µg/mL
[19]
  MIC: 25 µg/mL (≈ 18.6 µM)
[20]
  MIC: 25 µg/mL (≈ 18.6 µM)
[21]
  ILB activity (prophage induction in lysogenic bacterium): No significant ILB activity
[27]; single treatment on day 1
  LD50, i.p.: 0.81 mg/kg/day

## CO[C@@]12[C@H](COC(N)=O)C3=C(C(=O)C(C)=C(N)C3=O)N1C[C@@H]1N[C@@H]12 [Mitomycin C, reference compound]
[22]; [28]
  Minimum Effective Dose (MED): 0.3 mg/kg/day
[22]; [29]
  Minimum Effective Dose (MED): 1 mg/kg/day
[23]; [28]
  Minimum Effective Dose (MED): 0.3 mg/kg/day
[23]; [29]
  Minimum Effective Dose (MED): 3 mg/kg/day
[24]; [28]
  Minimum Effective Dose (MED): 0.3 mg/kg/day
[24]; [29]
  Minimum Effective Dose (MED): 0.3 mg/kg/day
[25]; [28]
  Minimum Effective Dose (MED): 0.1 mg/kg/day
[25]; [29]
  Minimum Effective Dose (MED): 0.1 mg/kg/day
[26]; [28]
  Minimum Effective Dose (MED): 0.03 mg/kg/day
[26]; [29]
  Minimum Effective Dose (MED): 0.3 mg/kg/day
